From US9714247B2, “Multiple kinase pathway inhibitors” (Mannkind Corporation, priority 2012, dated 2017)

Legend:
Test in all cases: IC50 profiler radiometric kinase assay (Millipore)
Type in all cases: biochemical
[1] = biological target: PI3 Kinase (p110α/p85α)(h) (Homo sapiens (Human), UniProt P42336); conditions: Lipid/Atypical
CaMKI(h) = CaMKI(h) (Homo sapiens (Human), UniProt Q14012); conditions: CAMK
FGFR1(h) = FGFR1(h) (Homo sapiens (Human), UniProt P11362); conditions: TK
Experimental: (§1) In order to determine the relative enzyme selectivity of these amino naphthyridinones, representative amino naphthyridinones were evaluated for their ability to inhibit various kinases. Kinases were selected for a broad representation of the kinome (see FIG. 2: Kinases Evaluated). Compounds were evaluated using the IC50 profiler assay (Millipore), which measures substrate phosphorylation via γ-^33P-ATP transfer by the kinase of interest.
(§2) The assay directly measures the catalytic incorporation of phosphate onto kinase substrates. The kinase protein is incubated in buffer with substrate and γ-^33P-ATP. The reaction is initiated by the addition of the Mg-ATP mix. At the end of the reaction incubation time, the reaction is stopped by the addition of phosphoric acid solution and 10 μL of the reaction is spotted onto a filtermat, washed, dried and counted in scintillation fluid. […] In particular the amino naphthyridinones inhibited Abl and some but not all tested members of the Tec and Src families of tyrosine kinases, but not tyrosine-like kinases or the non-tyrosine kinases tested (See FIG. 2: Compound 1). […] Other known drugs with activity against BTK and SFKs, such as dasatinib and bosutinib, have activity against a broader array of tyrosine kinases as well as inhibiting non-tyrosine kinases (See FIG. 2: Dasatinib).

GSK3α(h) = GSK3α(h) (Homo sapiens (Human), UniProt P49840); conditions: CMGC
Experimental: as §1, §2

PDGFRβ(h) = PDGFRβ(h) (Homo sapiens (Human), UniProt P09619); conditions: TK
Experimental: as §1, §2

IKKα(h) = IKKα(h) (Homo sapiens (Human), UniProt O15111); conditions: MISC
Experimental: as §1, §2

TGFBR1(h) = TGFBR1(h) (Homo sapiens (Human), UniProt P36897); conditions: TKL
Experimental: as §1, §2

CHK1(h) = CHK1(h) (Homo sapiens (Human), UniProt O14757); conditions: CAMK
Experimental: as §1, §2

c-Kit(h) = c-Kit(h) (Homo sapiens (Human), UniProt P10721); conditions: TK
Experimental: as §1, §2

CSK(h) = CSK(h) (Homo sapiens (Human), UniProt P41240); conditions: TK
Experimental: as §1, §2

c-RAF(h) = c-RAF(h) (Homo sapiens (Human), UniProt P04049, Y340D/Y341D); conditions: TKL
Experimental: as §1, §2

JNK2α2(h) = JNK2α2(h) (Homo sapiens (Human), UniProt P45984); conditions: CMGC
Experimental: as §1, §2

KDR(h) = KDR(h) (Homo sapiens (Human), UniProt P35968); conditions: TK
Experimental: as §1, §2

Plk1(h) = Plk1(h) (Homo sapiens (Human), UniProt P53350); conditions: MISC
Experimental: as §1, §2

SAPK2b(h) = SAPK2b(h) (Homo sapiens (Human), UniProt Q15759); conditions: CMGC
Experimental: as §1, §2

Abl(T315I)(h) = Abl(T315I)(h) (Homo sapiens (Human), UniProt P00519, T315I); conditions: TK
Experimental: as §1, §2

PAK2(h) = PAK2(h) (Homo sapiens (Human), UniProt Q13177); conditions: STE
Experimental: as §1, §2

mTOR(h) = mTOR(h) (Homo sapiens (Human), UniProt P42345); conditions: Lipid/Atypical
Experimental: as §1, §2

EGFR(h) = EGFR(h) (Homo sapiens (Human), UniProt P00533); conditions: TK
Experimental: as §1, §2

ASK1(h) = ASK1(h) (Homo sapiens (Human), UniProt Q99683); conditions: STE
Experimental: as §1, §2

Pim-1(h) = Pim-1(h) (Homo sapiens (Human), UniProt P11309); conditions: CAMK
Experimental: as §1, §2

Abl(h) = Abl(h) (Homo sapiens (Human), UniProt P00519); conditions: TK
Experimental: as §1, §2

Syk(h) = Syk(h) (Homo sapiens (Human), UniProt P43405); conditions: TK
Experimental: as §1, §2

Lck(h) = Lck(h) (Homo sapiens (Human), UniProt P06239); conditions: TK
Experimental: as §1, §2

JNK1α1(h) = JNK1α1(h) (Homo sapiens (Human), UniProt P45983); conditions: CMGC
Experimental: as §1, §2

PKCα(h) = PKCα(h) (Homo sapiens (Human), UniProt P17252); conditions: AGC
Experimental: as §1, §2

MAPKAP-K2(h) = MAPKAP-K2(h) (Homo sapiens (Human), UniProt P49137); conditions: CAMK
Experimental: as §1, §2

Flt3(h) = Flt3(h) (Homo sapiens (Human), UniProt P36888); conditions: TK
Experimental: as §1, §2

PDGFRα(h) = PDGFRα(h) (Homo sapiens (Human), UniProt P16234); conditions: TK
Experimental: as §1, §2

SAPK2a(h) = SAPK2a(h) (Homo sapiens (Human), UniProt Q16539); conditions: CMGC
Experimental: as §1, §2

IKKβ(h) = IKKβ(h) (Homo sapiens (Human), UniProt O14920); conditions: MISC
Experimental: as §1, §2

Met(h) = Met(h) (Homo sapiens (Human), UniProt P08581); conditions: TK
Experimental: as §1, §2

CDK9/cyclinT1(h) = CDK9/cyclinT1(h) (Homo sapiens (Human), UniProt P50750); conditions: CMGC
[2] = biological target: PI3 Kinase (p110β/p85α)(h) (Homo sapiens (Human), UniProt P42338); conditions: Lipid/Atypical

Sequence of MAPKAP-K2(h) (P49137 whole entry): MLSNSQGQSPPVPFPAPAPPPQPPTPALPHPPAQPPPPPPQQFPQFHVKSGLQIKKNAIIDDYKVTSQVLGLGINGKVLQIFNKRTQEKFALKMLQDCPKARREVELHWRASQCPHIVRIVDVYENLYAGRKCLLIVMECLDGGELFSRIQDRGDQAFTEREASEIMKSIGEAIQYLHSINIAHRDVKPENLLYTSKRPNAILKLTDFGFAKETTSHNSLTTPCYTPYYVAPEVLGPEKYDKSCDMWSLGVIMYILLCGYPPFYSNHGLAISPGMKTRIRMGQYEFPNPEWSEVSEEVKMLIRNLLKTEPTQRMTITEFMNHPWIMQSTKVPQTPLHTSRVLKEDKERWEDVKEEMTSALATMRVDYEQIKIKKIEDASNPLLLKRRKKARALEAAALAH
Sequence of KDR(h) (P35968 20-1356): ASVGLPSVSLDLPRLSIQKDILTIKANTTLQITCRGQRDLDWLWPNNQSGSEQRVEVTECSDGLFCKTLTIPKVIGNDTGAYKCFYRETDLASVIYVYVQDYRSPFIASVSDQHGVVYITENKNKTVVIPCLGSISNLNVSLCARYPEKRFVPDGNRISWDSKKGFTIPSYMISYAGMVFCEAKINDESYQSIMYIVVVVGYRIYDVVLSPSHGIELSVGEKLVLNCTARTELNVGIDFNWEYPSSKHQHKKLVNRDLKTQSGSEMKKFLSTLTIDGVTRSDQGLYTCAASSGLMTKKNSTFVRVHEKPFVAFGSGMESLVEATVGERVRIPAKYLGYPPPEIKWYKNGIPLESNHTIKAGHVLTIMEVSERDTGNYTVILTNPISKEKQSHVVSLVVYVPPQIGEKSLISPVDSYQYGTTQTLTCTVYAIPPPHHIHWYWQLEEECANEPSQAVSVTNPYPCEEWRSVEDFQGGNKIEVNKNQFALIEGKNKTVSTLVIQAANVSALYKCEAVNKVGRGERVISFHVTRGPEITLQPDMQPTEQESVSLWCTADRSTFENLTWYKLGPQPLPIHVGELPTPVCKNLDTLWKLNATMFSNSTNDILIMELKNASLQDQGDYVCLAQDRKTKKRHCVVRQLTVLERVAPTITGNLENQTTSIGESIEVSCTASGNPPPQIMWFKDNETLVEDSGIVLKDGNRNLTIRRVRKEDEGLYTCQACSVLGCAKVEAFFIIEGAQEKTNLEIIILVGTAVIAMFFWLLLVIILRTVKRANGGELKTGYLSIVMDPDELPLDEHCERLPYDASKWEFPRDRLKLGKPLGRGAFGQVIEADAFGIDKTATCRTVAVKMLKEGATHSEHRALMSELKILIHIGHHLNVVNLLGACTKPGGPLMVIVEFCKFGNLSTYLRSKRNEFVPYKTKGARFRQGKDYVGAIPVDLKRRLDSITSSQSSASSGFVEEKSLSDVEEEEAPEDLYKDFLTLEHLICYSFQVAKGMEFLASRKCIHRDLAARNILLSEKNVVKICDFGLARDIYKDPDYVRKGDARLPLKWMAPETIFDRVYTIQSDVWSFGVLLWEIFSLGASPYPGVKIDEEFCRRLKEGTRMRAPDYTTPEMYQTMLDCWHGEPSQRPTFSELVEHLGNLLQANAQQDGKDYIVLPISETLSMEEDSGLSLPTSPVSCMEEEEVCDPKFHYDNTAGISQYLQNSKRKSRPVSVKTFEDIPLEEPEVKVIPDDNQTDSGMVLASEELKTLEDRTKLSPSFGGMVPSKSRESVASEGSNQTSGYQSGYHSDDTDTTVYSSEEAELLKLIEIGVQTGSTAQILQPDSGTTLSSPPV
Sequence of PDGFRα(h) (P16234 24-1089): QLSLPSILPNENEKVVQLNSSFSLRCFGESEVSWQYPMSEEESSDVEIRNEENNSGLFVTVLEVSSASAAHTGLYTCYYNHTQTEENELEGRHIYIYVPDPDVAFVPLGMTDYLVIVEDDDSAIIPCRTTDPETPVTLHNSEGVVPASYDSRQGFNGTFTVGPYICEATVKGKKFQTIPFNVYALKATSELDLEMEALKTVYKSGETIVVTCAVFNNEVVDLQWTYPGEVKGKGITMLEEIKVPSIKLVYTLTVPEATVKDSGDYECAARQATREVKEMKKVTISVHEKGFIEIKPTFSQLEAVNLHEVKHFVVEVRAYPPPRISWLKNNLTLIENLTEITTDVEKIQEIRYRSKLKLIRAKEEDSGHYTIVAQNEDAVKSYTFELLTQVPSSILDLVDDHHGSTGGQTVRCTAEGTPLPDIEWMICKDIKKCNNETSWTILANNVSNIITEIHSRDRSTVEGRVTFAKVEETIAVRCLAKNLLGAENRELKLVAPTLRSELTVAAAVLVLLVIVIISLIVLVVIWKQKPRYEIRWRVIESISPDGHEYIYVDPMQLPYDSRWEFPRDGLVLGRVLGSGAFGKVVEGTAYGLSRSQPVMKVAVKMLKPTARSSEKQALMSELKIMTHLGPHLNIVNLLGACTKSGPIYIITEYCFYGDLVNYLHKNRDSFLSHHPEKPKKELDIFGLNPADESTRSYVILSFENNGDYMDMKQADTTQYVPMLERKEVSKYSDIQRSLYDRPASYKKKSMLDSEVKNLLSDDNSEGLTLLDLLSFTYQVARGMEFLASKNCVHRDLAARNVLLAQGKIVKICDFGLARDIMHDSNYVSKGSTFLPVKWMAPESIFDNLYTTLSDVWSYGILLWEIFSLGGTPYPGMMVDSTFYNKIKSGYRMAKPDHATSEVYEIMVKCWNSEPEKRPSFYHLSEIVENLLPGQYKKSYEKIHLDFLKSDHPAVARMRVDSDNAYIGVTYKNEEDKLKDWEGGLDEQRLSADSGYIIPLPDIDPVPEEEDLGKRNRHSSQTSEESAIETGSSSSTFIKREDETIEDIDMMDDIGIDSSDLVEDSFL
Sequence of Flt3(h) (P36888 27-993): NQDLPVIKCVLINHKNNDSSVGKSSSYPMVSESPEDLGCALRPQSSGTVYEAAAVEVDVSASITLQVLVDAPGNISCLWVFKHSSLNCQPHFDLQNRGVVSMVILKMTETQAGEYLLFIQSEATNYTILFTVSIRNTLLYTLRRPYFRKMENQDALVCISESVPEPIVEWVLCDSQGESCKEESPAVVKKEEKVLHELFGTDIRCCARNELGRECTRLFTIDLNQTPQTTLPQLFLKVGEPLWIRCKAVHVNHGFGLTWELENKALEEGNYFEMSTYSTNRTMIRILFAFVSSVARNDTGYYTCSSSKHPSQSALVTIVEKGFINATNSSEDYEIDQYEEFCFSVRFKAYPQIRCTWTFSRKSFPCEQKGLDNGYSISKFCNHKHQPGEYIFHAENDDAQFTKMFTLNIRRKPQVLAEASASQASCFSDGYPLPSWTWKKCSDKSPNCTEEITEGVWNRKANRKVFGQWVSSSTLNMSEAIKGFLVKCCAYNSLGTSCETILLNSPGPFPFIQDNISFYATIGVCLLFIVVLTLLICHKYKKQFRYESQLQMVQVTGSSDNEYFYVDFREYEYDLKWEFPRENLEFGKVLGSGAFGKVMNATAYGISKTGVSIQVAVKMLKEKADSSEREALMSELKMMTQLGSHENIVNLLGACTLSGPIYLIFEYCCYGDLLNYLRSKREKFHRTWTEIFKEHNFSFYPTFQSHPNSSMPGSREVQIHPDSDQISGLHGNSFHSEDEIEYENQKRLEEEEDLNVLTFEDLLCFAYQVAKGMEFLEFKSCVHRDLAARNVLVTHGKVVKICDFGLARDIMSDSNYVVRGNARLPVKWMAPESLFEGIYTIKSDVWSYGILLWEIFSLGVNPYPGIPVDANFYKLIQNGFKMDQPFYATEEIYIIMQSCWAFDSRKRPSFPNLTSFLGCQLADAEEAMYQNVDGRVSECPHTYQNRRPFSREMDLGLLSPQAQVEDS
Sequence of PAK2(h) (Q13177 whole entry): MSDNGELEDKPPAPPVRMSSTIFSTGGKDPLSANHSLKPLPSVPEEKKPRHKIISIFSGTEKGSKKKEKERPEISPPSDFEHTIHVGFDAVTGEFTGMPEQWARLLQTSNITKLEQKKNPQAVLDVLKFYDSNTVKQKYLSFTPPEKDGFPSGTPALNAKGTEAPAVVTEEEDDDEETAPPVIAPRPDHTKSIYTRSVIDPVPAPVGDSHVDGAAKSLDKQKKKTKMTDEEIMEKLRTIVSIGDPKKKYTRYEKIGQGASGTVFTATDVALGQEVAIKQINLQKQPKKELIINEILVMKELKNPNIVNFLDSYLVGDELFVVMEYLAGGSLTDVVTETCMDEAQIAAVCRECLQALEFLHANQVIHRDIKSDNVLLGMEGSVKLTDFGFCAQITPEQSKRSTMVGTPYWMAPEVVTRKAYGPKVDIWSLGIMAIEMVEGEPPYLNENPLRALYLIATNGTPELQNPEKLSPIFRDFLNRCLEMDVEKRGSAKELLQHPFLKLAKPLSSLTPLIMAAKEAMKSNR
Sequence of IKKβ(h) (O14920 whole entry): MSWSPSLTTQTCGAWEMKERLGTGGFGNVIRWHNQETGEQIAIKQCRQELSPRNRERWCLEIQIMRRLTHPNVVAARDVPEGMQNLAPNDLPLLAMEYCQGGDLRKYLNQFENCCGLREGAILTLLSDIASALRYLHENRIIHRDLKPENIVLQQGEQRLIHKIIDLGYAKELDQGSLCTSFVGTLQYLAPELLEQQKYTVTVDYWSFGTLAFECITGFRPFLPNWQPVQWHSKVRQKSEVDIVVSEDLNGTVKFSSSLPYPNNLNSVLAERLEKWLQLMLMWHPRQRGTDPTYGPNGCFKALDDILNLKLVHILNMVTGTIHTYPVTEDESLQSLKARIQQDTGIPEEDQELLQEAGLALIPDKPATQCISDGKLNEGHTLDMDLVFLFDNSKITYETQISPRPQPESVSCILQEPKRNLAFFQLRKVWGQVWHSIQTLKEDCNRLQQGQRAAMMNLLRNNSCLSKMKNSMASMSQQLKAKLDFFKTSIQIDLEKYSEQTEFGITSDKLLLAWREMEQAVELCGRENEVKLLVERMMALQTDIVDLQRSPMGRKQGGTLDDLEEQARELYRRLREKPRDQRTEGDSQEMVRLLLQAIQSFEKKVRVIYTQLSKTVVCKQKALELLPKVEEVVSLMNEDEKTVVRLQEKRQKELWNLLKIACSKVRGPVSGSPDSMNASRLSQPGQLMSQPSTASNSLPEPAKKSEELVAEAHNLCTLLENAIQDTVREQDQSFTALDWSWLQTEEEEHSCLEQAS

| Structure (SMILES) | IC50 [1] [nM] | IC50 (CaMKI(h)) [nM] | IC50 (FGFR1(h)) [nM] | IC50 (GSK3α(h)) [nM] | IC50 (PDGFRβ(h)) [nM] | IC50 (IKKα(h)) [nM] | IC50 (TGFBR1(h)) [nM] | IC50 (CHK1(h)) [nM] | IC50 (c-Kit(h)) [nM] | IC50 (CSK(h)) [nM] | IC50 (c-RAF(h)) [nM] | IC50 (JNK2α2(h)) [nM] | IC50 (KDR(h)) [nM] | IC50 (Plk1(h)) [nM] | IC50 (SAPK2b(h)) [nM] | IC50 (Abl(T315I)(h)) [nM] | IC50 (PAK2(h)) [nM] | IC50 (mTOR(h)) [nM] | IC50 (EGFR(h)) [nM] | IC50 (ASK1(h)) [nM] | further results |
| --- | --- | --- | --- | --- | --- | --- | --- | --- | --- | --- | --- | --- | --- | --- | --- | --- | --- | --- | --- | --- | --- |
| CCN(CC)CCOc1ccc(Nc2cc3c(cn2)cc(-c2ccccc2)c(=O)n3CC)nc1 [Compound 1, 7-[5-(2-Diethylamino-ethoxy)-pyridin-2-ylamino]-1-ethyl-3-phenyl-1H-[1, 6]naphthyridin-2-one] | > 1000 | > 1000 | < 10 | > 1000 | 100 to 500 | > 1000 | 100 to 500 | > 1000 | 100 to 500 | 500 to 1000 | 100 to 500 | > 1000 | 100 to 500 | > 1000 | > 1000 | 100 to 500 | > 1000 | > 1000 | 500 to 1000 | > 1000 | IC50 (Pim-1(h)): > 1000 nM; IC50 (Abl(h)): < 10 nM; IC50 (Syk(h)): > 1000 nM; IC50 (Lck(h)): < 10 nM; IC50 (JNK1α1(h)): > 1000 nM; IC50 (PKCα(h)): > 1000 nM; IC50 (MAPKAP-K2(h)): > 1000 nM; IC50 (Flt3(h)): > 1000 nM; IC50 (PDGFRα(h)): 100 to 500 nM; IC50 (SAPK2a(h)): 500 to 1000 nM; IC50 (IKKβ(h)): > 1000 nM; IC50 (Met(h)): > 1000 nM; IC50 (CDK9/cyclinT1(h)): > 1000 nM; IC50 [2]: > 1000 nM |
| CCn1c(=O)c(-c2ccccc2)cc2cnc(Nc3ncc(CCN(C)C)s3)cc21 [Compound 2, 7-[5-(2-Dimethylamino-ethyl)-thiazol-2-ylamino]-1-ethyl-3-phenyl-1H-[1,6]naphthyridin-2-one] | > 1000 | > 1000 | 10 to 100 | > 1000 | 500 to 1000 | > 1000 | 500 to 1000 | > 1000 | 100 to 500 | > 1000 | 100 to 500 | > 1000 | 500 to 1000 | > 1000 | > 1000 | 500 to 1000 | > 1000 | > 1000 | > 1000 | > 1000 | IC50 (Pim-1(h)): > 1000 nM; IC50 (Abl(h)): 10 to 100 nM; IC50 (Syk(h)): > 1000 nM; IC50 (Lck(h)): < 10 nM; IC50 (JNK1α1(h)): > 1000 nM; IC50 (PKCα(h)): > 1000 nM; IC50 (MAPKAP-K2(h)): > 1000 nM; IC50 (Flt3(h)): > 1000 nM; IC50 (PDGFRα(h)): 500 to 1000 nM; IC50 (SAPK2a(h)): > 1000 nM; IC50 (IKKβ(h)): > 1000 nM; IC50 (Met(h)): > 1000 nM; IC50 (CDK9/cyclinT1(h)): > 1000 nM; IC50 [2]: > 1000 nM |
